Laboratory results reported in the supplement of paper PMC10307832.

Experiments:
Experiment in all cases: relative viability (nuclei count vs DMSO), 5 days (fraction); higher = more cells survive
Elesclomol + Decitabine = compound: CN(NC(=O)CC(=O)NN(C)C(=S)c1ccccc1)C(=S)c1ccccc1 [Elesclomol] + Nc1ncn([C@H]2C[C@H](O)[C@@H](CO)O2)c(=O)n1 [Decitabine] (partner 2 µM)
Outline: (§1)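 For relative viability, nuclei counts in treated wells were divided by those in vehicle wells. Lung cancer cell lines had been pin-tool dosed in 1536-well plates the day after seeding and cultured for 5 days, then fixed and stained in one step (final 0.05% Triton X-100, 1% formaldehyde, 1 ug/ml Hoechst) and imaged at 4×. Doses were one drug alone or a fixed anchor-drug dose plus five library-drug doses (not always all listed) in √10 steps, and values are duplicate-plate medians.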

Elesclomol + Foretinib = compound: CN(NC(=O)CC(=O)NN(C)C(=S)c1ccccc1)C(=S)c1ccccc1 [Elesclomol] + COc1cc2c(Oc3ccc(NC(=O)C4(C(=O)Nc5ccc(F)cc5)CC4)cc3F)ccnc2cc1OCCCN1CCOCC1 [Foretinib] (partner 0.25 µM)
Outline: as §1

Elesclomol + OSI-027 = compound: CN(NC(=O)CC(=O)NN(C)C(=S)c1ccccc1)C(=S)c1ccccc1 [Elesclomol] + COc1cccc2cc(-c3nc([C@H]4CC[C@H](C(=O)O)CC4)n4ncnc(N)c34)[nH]c12 [OSI-027] (partner 0.5 µM)
Outline: as §1

Elesclomol + Alpelisib = compound: CN(NC(=O)CC(=O)NN(C)C(=S)c1ccccc1)C(=S)c1ccccc1 [Elesclomol] + Cc1nc(NC(=O)N2CCC[C@H]2C(N)=O)sc1-c1ccnc(C(C)(C)C(F)(F)F)c1 [Alpelisib] (partner 2 µM)
Outline: as §1

Elesclomol + Luminespib = compound: CN(NC(=O)CC(=O)NN(C)C(=S)c1ccccc1)C(=S)c1ccccc1 [Elesclomol] + CCNC(=O)c1noc(-c2cc(C(C)C)c(O)cc2O)c1-c1ccc(CN2CCOCC2)cc1 [Luminespib] (partner 0.01 µM)
Outline: as §1

Cell Line	relative viability (Elesclomol + Decitabine; first compound 0.003162 µM)	relative viability (Elesclomol + Decitabine; first compound 0.01 µM)	relative viability (Elesclomol + Decitabine; first compound 0.1 µM)	relative viability (Elesclomol + Foretinib; first compound 0.003162 µM)	relative viability (Elesclomol + Foretinib; first compound 0.01 µM)	relative viability (Elesclomol + Foretinib; first compound 0.03162 µM)	relative viability (Elesclomol + Foretinib; first compound 0.1 µM)	relative viability (Elesclomol + OSI-027; first compound 0.003162 µM)	relative viability (Elesclomol + OSI-027; first compound 0.01 µM)	relative viability (Elesclomol + OSI-027; first compound 0.03162 µM)	relative viability (Elesclomol + OSI-027; first compound 0.1 µM)	relative viability (Elesclomol + Alpelisib; first compound 0.003162 µM)	relative viability (Elesclomol + Alpelisib; first compound 0.01 µM)	relative viability (Elesclomol + Alpelisib; first compound 0.03162 µM)	relative viability (Elesclomol + Alpelisib; first compound 0.1 µM)	relative viability (Elesclomol + Luminespib; first compound 0.003162 µM)	relative viability (Elesclomol + Luminespib; first compound 0.01 µM)	relative viability (Elesclomol + Luminespib; first compound 0.03162 µM)	relative viability (Elesclomol + Luminespib; first compound 0.1 µM)	relative viability (Elesclomol + Decitabine; first compound 0.03162 µM)
EMC-BAC-2	0.933	0.804	0.408	1.1	0.877	0.784	0.392	0.408	0.225	0.352	0.176	0.743	0.649	0.616	0.389	1.23	1.04	0.535	0.383	–
NCI-H661	0.58	0.468	0.239	0.885	0.54	0.275	0.293	0.617	0.283	0.242	0.168	0.619	0.387	0.2	0.234	0.845	0.326	0.282	0.214	0.296
LU99A	0.904	0.807	0.556	0.883	0.625	0.815	0.234	0.309	0.259	0.295	0.223	0.479	–	0.538	0.095	0.264	0.21	0.227	0.189	0.794
LK-2	0.288	0.314	0.113	0.89	0.969	0.719	0.177	0.232	0.224	0.179	0.116	0.843	0.254	0.137	0.107	0.197	0.172	0.178	0.136	0.276
NCI-H3122	0.415	0.455	0.0861	1.01	0.961	0.839	0.135	0.955	0.198	0.144	0.0943	0.706	0.759	0.758	0.159	0.083	0.113	0.0663	0.0832	0.397
NCI-H2347	0.662	0.56	0.475	1.06	0.701	0.482	0.942	0.389	0.389	0.173	0.211	1.04	0.928	0.955	0.513	0.318	0.557	0.282	0.25	0.534
NCI-H1563	–	–	–	0.727	0.724	0.617	0.459	0.647	0.606	0.52	0.459	0.687	0.613	0.537	0.527	0.518	0.472	0.471	0.432	–
HCC-827	0.344	0.35	0.252	0.991	0.913	1.12	0.683	0.741	0.758	0.722	0.532	0.98	1.01	0.975	0.657	0.586	0.54	0.579	0.473	0.283
NCI-H1666	0.739	0.717	0.47	1.06	0.88	0.621	0.509	0.807	0.654	0.464	0.465	0.765	0.232	0.277	0.116	0.962	0.788	0.521	0.484	0.522
NCI-H358	0.171	0.108	0.0726	0.261	0.182	0.106	0.1	0.276	0.116	0.0873	0.087	0.43	0.163	0.166	0.142	0.194	0.141	0.137	0.117	0.0885
201T	0.869	0.844	0.854	0.945	0.671	0.265	0.265	0.683	0.587	0.386	0.369	0.985	1.02	1.03	0.964	1.01	1.02	0.978	0.562	0.818
PC-3 [JPC-3]	0.877	0.656	0.524	0.996	1.02	1.17	0.559	0.734	0.662	0.781	0.428	0.981	0.958	1.04	0.778	0.706	0.612	0.701	0.447	0.487
NCI-H2405	0.775	0.643	0.324	1.04	0.663	0.336	0.292	0.651	0.473	0.339	0.272	0.783	0.312	0.223	0.224	0.684	0.554	0.265	0.299	0.336
LXF-289	0.395	0.39	0.253	0.979	0.942	0.894	0.684	0.82	0.328	0.803	0.589	1.05	0.977	0.979	0.686	0.676	0.661	0.691	0.316	0.389
EKVX	0.395	0.222	0.132	0.779	0.736	0.398	0.189	0.767	0.457	0.329	0.185	0.857	0.369	0.328	0.174	0.831	0.539	0.169	0.145	0.148
A-427	0.601	0.453	0.194	0.981	0.956	0.917	0.157	0.45	0.2	0.3	0.149	1.04	1.07	1.15	0.558	0.701	0.498	0.27	0.117	0.285
IA-LM	–	–	–	1.13	0.54	0.0372	0.009	–	–	–	–	0.789	0.164	0.076	0.027	–	–	–	–	–
ChaGo-K-1	0.531	0.473	0.163	0.838	0.95	0.34	0.186	0.591	0.462	0.221	0.136	–	–	–	–	0.524	0.541	0.184	0.128	0.415

Cell Line	relative viability (Elesclomol + Decitabine; first compound 0.003162 µM)	relative viability (Elesclomol + Decitabine; first compound 0.01 µM)	relative viability (Elesclomol + Decitabine; first compound 0.1 µM)	relative viability (Elesclomol + Foretinib; first compound 0.003162 µM)	relative viability (Elesclomol + Foretinib; first compound 0.01 µM)	relative viability (Elesclomol + Foretinib; first compound 0.03162 µM)	relative viability (Elesclomol + Foretinib; first compound 0.1 µM)	relative viability (Elesclomol + OSI-027; first compound 0.003162 µM)	relative viability (Elesclomol + OSI-027; first compound 0.01 µM)	relative viability (Elesclomol + OSI-027; first compound 0.03162 µM)	relative viability (Elesclomol + OSI-027; first compound 0.1 µM)	relative viability (Elesclomol + Alpelisib; first compound 0.003162 µM)	relative viability (Elesclomol + Alpelisib; first compound 0.01 µM)	relative viability (Elesclomol + Alpelisib; first compound 0.03162 µM)	relative viability (Elesclomol + Alpelisib; first compound 0.1 µM)	relative viability (Elesclomol + Luminespib; first compound 0.003162 µM)	relative viability (Elesclomol + Luminespib; first compound 0.01 µM)	relative viability (Elesclomol + Luminespib; first compound 0.03162 µM)	relative viability (Elesclomol + Luminespib; first compound 0.1 µM)	relative viability (Elesclomol + Decitabine; first compound 0.03162 µM)
NCI-H2342	0.697	0.866	0.602	1.08	0.915	0.437	0.344	0.648	0.583	0.395	0.301	–	–	–	–	0.665	0.551	0.391	0.322	0.784
SK-MES-1	0.425	0.306	0.172	0.87	0.502	0.859	0.854	0.695	0.196	0.266	0.395	0.854	0.502	0.679	0.279	0.922	0.713	0.274	0.295	0.213
LCLC-97TM1	0.258	0.198	0.131	0.986	0.952	0.909	0.418	0.549	0.164	0.49	0.15	0.216	0.211	0.167	0.104	0.791	0.877	0.781	0.247	0.211
NCI-H2170	0.461	0.48	0.38	1.02	1.03	0.977	0.764	0.793	0.577	0.739	0.583	0.808	0.722	0.708	0.403	0.735	0.624	0.646	0.435	0.48
NCI-H1993	0.613	0.505	0.389	0.772	0.671	0.553	0.533	0.552	0.498	0.616	0.513	0.755	0.662	0.666	0.52	0.764	0.595	0.466	0.429	0.477
NCI-H460	0.433	0.396	0.0381	0.975	0.848	0.27	0.0259	0.619	0.276	0.101	0.0137	0.434	0.0761	0.0128	0.0117	0.0311	0.0324	0.0198	0.0215	0.107
NCI-H1975	0.387	0.386	0.189	0.943	0.832	0.311	0.164	0.863	0.455	0.392	0.0658	0.646	0.468	0.229	0.11	0.126	0.133	0.133	0.115	0.308
CAL-12T	–	–	–	1.04	1.16	0.263	0.144	0.504	0.277	0.139	0.0937	1.19	0.239	0.312	0.0757	0.328	0.115	0.0856	0.0463	–
NCI-H1792	0.53	–	0.443	–	–	–	–	0.724	0.547	0.67	0.61	0.621	0.505	0.718	0.858	0.385	0.354	0.431	0.329	0.523
HCC-366	0.39	0.31	0.0263	0.893	0.945	0.899	0.0283	1.05	0.139	0.823	0.0338	0.437	0.491	0.359	0.0118	–	–	–	–	0.0994
HCC-44	0.913	0.941	0.94	–	–	–	–	0.636	0.198	0.351	0.11	0.812	0.723	0.768	0.371	1.01	0.86	0.213	0.178	0.952
NCI-H1703	–	–	–	0.26	0.207	0.129	0.133	–	–	–	–	0.225	0.135	0.0986	0.0874	–	–	–	–	–
NCI-H1650	0.306	0.219	0.0942	0.525	0.306	0.132	0.136	0.221	0.201	0.151	0.132	–	–	–	–	0.156	0.206	0.201	0.148	0.16
HCC-78	0.727	0.674	0.564	0.516	0.574	0.548	0.583	0.356	0.399	0.364	0.322	0.27	0.354	0.325	0.307	–	–	–	–	0.701
NCI-H522	0.693	0.649	0.469	–	–	–	–	0.716	0.62	0.634	0.457	–	–	–	–	0.958	1.02	1.06	0.625	0.7
SW 900	0.404	0.358	0.13	0.87	0.91	0.127	0.0681	0.615	0.287	0.121	0.0545	–	–	–	–	0.173	0.132	0.17	0.139	0.204
NCI-H2228	–	–	–	0.863	0.844	0.252	0.054	0.568	0.27	0.188	0.0467	0.569	0.5	0.198	0.0389	0.163	0.152	0.123	0.0703	–
